Drawing on PubChem BioAssay AID1963840 (Molecular Pharmacology Branch, DTP, NCI, 2024), this text covers viability, T/C for 4 compounds.
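Also: spheroids exposed to compounds for seven days; 100% = DMSO vehicle control viability.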

In the first assay the test system is 695427-040-R-J1-PDC complex spheroid viability. The assay is described as follows: Anticancer human tumor 695427-040-R-J1-PDC patient-derived colon adenocarcinoma cell line growth inhibition [POLQ]. To be noted: second compound 0.0316 µM; first compound 3.16 µM; hits give low values. In a few lines: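 Growth inhibition in 3D: complex spheroids (tumor PDC, HUVEC, MSC) treated with POLQ inhibitor combinations; where Cmax unknown, highest tested concentration 10 microM, except SN-38 at 1 microM.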
Consider `CCCS(=O)(=O)Nc1ccc(F)c(C(=O)c2c[nH]c3ncc(-c4ccc(Cl)cc4)cc23)c1F` + COC1C(OC(N)=O)C(O)C(Oc2ccc3c(O)c(NC(=O)c4ccc(O)c(CC=C(C)C)c4)c(=O)oc3c2C)OC1(C)C, for which the viability, T/C is 116%.

On to `CNCc1ccc(-c2[nH]c3cc(F)cc4c3c2CCNC4=O)cc1` + COC1C(OC(N)=O)C(O)C(Oc2ccc3c(O)c(NC(=O)c4ccc(O)c(CC=C(C)C)c4)c(=O)oc3c2C)OC1(C)C, for which the viability, T/C was 112%.

As for `O=C(c1cc(Cc2n[nH]c(=O)c3ccccc23)ccc1F)N1CCN(C(=O)C2CC2)CC1` + COC1C(OC(N)=O)C(O)C(Oc2ccc3c(O)c(NC(=O)c4ccc(O)c(CC=C(C)C)c4)c(=O)oc3c2C)OC1(C)C, the viability, T/C is 110%.

Staying with this assay, now noted: second compound 0.0316 µM; first compound 10 µM; hits give low values.
`CCCS(=O)(=O)Nc1ccc(F)c(C(=O)c2c[nH]c3ncc(-c4ccc(Cl)cc4)cc23)c1F` + COC1C(OC(N)=O)C(O)C(Oc2ccc3c(O)c(NC(=O)c4ccc(O)c(CC=C(C)C)c4)c(=O)oc3c2C)OC1(C)C: the viability, T/C is 80.7%.

For the compound `CNCc1ccc(-c2[nH]c3cc(F)cc4c3c2CCNC4=O)cc1` + COC1C(OC(N)=O)C(O)C(Oc2ccc3c(O)c(NC(=O)c4ccc(O)c(CC=C(C)C)c4)c(=O)oc3c2C)OC1(C)C, the viability, T/C is 103%.

Regarding `O=C(c1cc(Cc2n[nH]c(=O)c3ccccc23)ccc1F)N1CCN(C(=O)C2CC2)CC1` + COC1C(OC(N)=O)C(O)C(Oc2ccc3c(O)c(NC(=O)c4ccc(O)c(CC=C(C)C)c4)c(=O)oc3c2C)OC1(C)C, the viability, T/C was 97.9%.

Still in this assay, the particulars now being: second compound 0.1 µM; first compound 0.00316 µM; hits give low values.
As to `COc1cccc(OCCCN)c1-c1cc(Nc2cnc(C#N)cn2)n[nH]1` + COC1C(OC(N)=O)C(O)C(Oc2ccc3c(O)c(NC(=O)c4ccc(O)c(CC=C(C)C)c4)c(=O)oc3c2C)OC1(C)C, the viability, T/C was 109%.

Staying with this assay, now noted: second compound 0.1 µM; first compound 0.01 µM; hits give low values.
With `COc1cccc(OCCCN)c1-c1cc(Nc2cnc(C#N)cn2)n[nH]1` + COC1C(OC(N)=O)C(O)C(Oc2ccc3c(O)c(NC(=O)c4ccc(O)c(CC=C(C)C)c4)c(=O)oc3c2C)OC1(C)C, the viability, T/C was 84.2%.

The same assay, now with this note: second compound 0.1 µM; first compound 0.0316 µM; hits give low values.
On to `CCCS(=O)(=O)Nc1ccc(F)c(C(=O)c2c[nH]c3ncc(-c4ccc(Cl)cc4)cc23)c1F` + COC1C(OC(N)=O)C(O)C(Oc2ccc3c(O)c(NC(=O)c4ccc(O)c(CC=C(C)C)c4)c(=O)oc3c2C)OC1(C)C, for which the viability, T/C was 103%.

For the compound `CNCc1ccc(-c2[nH]c3cc(F)cc4c3c2CCNC4=O)cc1` + COC1C(OC(N)=O)C(O)C(Oc2ccc3c(O)c(NC(=O)c4ccc(O)c(CC=C(C)C)c4)c(=O)oc3c2C)OC1(C)C, the viability, T/C was 108%.

For `COc1cccc(OCCCN)c1-c1cc(Nc2cnc(C#N)cn2)n[nH]1` + COC1C(OC(N)=O)C(O)C(Oc2ccc3c(O)c(NC(=O)c4ccc(O)c(CC=C(C)C)c4)c(=O)oc3c2C)OC1(C)C, the viability, T/C is 81%.

Consider `O=C(c1cc(Cc2n[nH]c(=O)c3ccccc23)ccc1F)N1CCN(C(=O)C2CC2)CC1` + COC1C(OC(N)=O)C(O)C(Oc2ccc3c(O)c(NC(=O)c4ccc(O)c(CC=C(C)C)c4)c(=O)oc3c2C)OC1(C)C, for which the viability, T/C was 108%.

The same assay, now with this note: second compound 0.1 µM; first compound 0.1 µM; hits give low values.
Regarding `CCCS(=O)(=O)Nc1ccc(F)c(C(=O)c2c[nH]c3ncc(-c4ccc(Cl)cc4)cc23)c1F` + COC1C(OC(N)=O)C(O)C(Oc2ccc3c(O)c(NC(=O)c4ccc(O)c(CC=C(C)C)c4)c(=O)oc3c2C)OC1(C)C, the viability, T/C is 94.3%.

For `CNCc1ccc(-c2[nH]c3cc(F)cc4c3c2CCNC4=O)cc1` + COC1C(OC(N)=O)C(O)C(Oc2ccc3c(O)c(NC(=O)c4ccc(O)c(CC=C(C)C)c4)c(=O)oc3c2C)OC1(C)C, the viability, T/C was 95.1%.

Turning to `COc1cccc(OCCCN)c1-c1cc(Nc2cnc(C#N)cn2)n[nH]1` + COC1C(OC(N)=O)C(O)C(Oc2ccc3c(O)c(NC(=O)c4ccc(O)c(CC=C(C)C)c4)c(=O)oc3c2C)OC1(C)C, the viability, T/C was 69.7%.

Turning to `O=C(c1cc(Cc2n[nH]c(=O)c3ccccc23)ccc1F)N1CCN(C(=O)C2CC2)CC1` + COC1C(OC(N)=O)C(O)C(Oc2ccc3c(O)c(NC(=O)c4ccc(O)c(CC=C(C)C)c4)c(=O)oc3c2C)OC1(C)C, the viability, T/C is 108%.

The assay is the same for the next values; noted with them: second compound 0.1 µM; first compound 0.316 µM; hits give low values.
For `CCCS(=O)(=O)Nc1ccc(F)c(C(=O)c2c[nH]c3ncc(-c4ccc(Cl)cc4)cc23)c1F` + COC1C(OC(N)=O)C(O)C(Oc2ccc3c(O)c(NC(=O)c4ccc(O)c(CC=C(C)C)c4)c(=O)oc3c2C)OC1(C)C, the viability, T/C was 108%.

Regarding `CNCc1ccc(-c2[nH]c3cc(F)cc4c3c2CCNC4=O)cc1` + COC1C(OC(N)=O)C(O)C(Oc2ccc3c(O)c(NC(=O)c4ccc(O)c(CC=C(C)C)c4)c(=O)oc3c2C)OC1(C)C, the viability, T/C is 107%.

For the compound `COc1cccc(OCCCN)c1-c1cc(Nc2cnc(C#N)cn2)n[nH]1` + COC1C(OC(N)=O)C(O)C(Oc2ccc3c(O)c(NC(=O)c4ccc(O)c(CC=C(C)C)c4)c(=O)oc3c2C)OC1(C)C, the viability, T/C is 56%.

Regarding `O=C(c1cc(Cc2n[nH]c(=O)c3ccccc23)ccc1F)N1CCN(C(=O)C2CC2)CC1` + COC1C(OC(N)=O)C(O)C(Oc2ccc3c(O)c(NC(=O)c4ccc(O)c(CC=C(C)C)c4)c(=O)oc3c2C)OC1(C)C, the viability, T/C was 108%.

The same assay, now with this note: second compound 0.1 µM; first compound 1 µM; hits give low values.
Take `CCCS(=O)(=O)Nc1ccc(F)c(C(=O)c2c[nH]c3ncc(-c4ccc(Cl)cc4)cc23)c1F` + COC1C(OC(N)=O)C(O)C(Oc2ccc3c(O)c(NC(=O)c4ccc(O)c(CC=C(C)C)c4)c(=O)oc3c2C)OC1(C)C: the viability, T/C is 111%.

In the case of `CNCc1ccc(-c2[nH]c3cc(F)cc4c3c2CCNC4=O)cc1` + COC1C(OC(N)=O)C(O)C(Oc2ccc3c(O)c(NC(=O)c4ccc(O)c(CC=C(C)C)c4)c(=O)oc3c2C)OC1(C)C, the viability, T/C is 103%.

As for `COc1cccc(OCCCN)c1-c1cc(Nc2cnc(C#N)cn2)n[nH]1` + COC1C(OC(N)=O)C(O)C(Oc2ccc3c(O)c(NC(=O)c4ccc(O)c(CC=C(C)C)c4)c(=O)oc3c2C)OC1(C)C, the viability, T/C is 42.2%.

As to `O=C(c1cc(Cc2n[nH]c(=O)c3ccccc23)ccc1F)N1CCN(C(=O)C2CC2)CC1` + COC1C(OC(N)=O)C(O)C(Oc2ccc3c(O)c(NC(=O)c4ccc(O)c(CC=C(C)C)c4)c(=O)oc3c2C)OC1(C)C, the viability, T/C was 105%.

The assay is the same for the next values; noted with them: second compound 0.1 µM; first compound 3.16 µM; hits give low values.
For `CCCS(=O)(=O)Nc1ccc(F)c(C(=O)c2c[nH]c3ncc(-c4ccc(Cl)cc4)cc23)c1F` + COC1C(OC(N)=O)C(O)C(Oc2ccc3c(O)c(NC(=O)c4ccc(O)c(CC=C(C)C)c4)c(=O)oc3c2C)OC1(C)C, the viability, T/C is 107%.

With `CNCc1ccc(-c2[nH]c3cc(F)cc4c3c2CCNC4=O)cc1` + COC1C(OC(N)=O)C(O)C(Oc2ccc3c(O)c(NC(=O)c4ccc(O)c(CC=C(C)C)c4)c(=O)oc3c2C)OC1(C)C, the viability, T/C is 112%.

`O=C(c1cc(Cc2n[nH]c(=O)c3ccccc23)ccc1F)N1CCN(C(=O)C2CC2)CC1` + COC1C(OC(N)=O)C(O)C(Oc2ccc3c(O)c(NC(=O)c4ccc(O)c(CC=C(C)C)c4)c(=O)oc3c2C)OC1(C)C: the viability, T/C is 111%.

Still in this assay, the particulars now being: second compound 0.1 µM; first compound 10 µM; hits give low values.
Take `CCCS(=O)(=O)Nc1ccc(F)c(C(=O)c2c[nH]c3ncc(-c4ccc(Cl)cc4)cc23)c1F` + COC1C(OC(N)=O)C(O)C(Oc2ccc3c(O)c(NC(=O)c4ccc(O)c(CC=C(C)C)c4)c(=O)oc3c2C)OC1(C)C: the viability, T/C is 78.6%.

On to `CNCc1ccc(-c2[nH]c3cc(F)cc4c3c2CCNC4=O)cc1` + COC1C(OC(N)=O)C(O)C(Oc2ccc3c(O)c(NC(=O)c4ccc(O)c(CC=C(C)C)c4)c(=O)oc3c2C)OC1(C)C, for which the viability, T/C was 111%.

As for `O=C(c1cc(Cc2n[nH]c(=O)c3ccccc23)ccc1F)N1CCN(C(=O)C2CC2)CC1` + COC1C(OC(N)=O)C(O)C(Oc2ccc3c(O)c(NC(=O)c4ccc(O)c(CC=C(C)C)c4)c(=O)oc3c2C)OC1(C)C, the viability, T/C is 96.3%.

Still in this assay, the particulars now being: second compound 0.316 µM; first compound 0.00316 µM; hits give low values.
Turning to `COc1cccc(OCCCN)c1-c1cc(Nc2cnc(C#N)cn2)n[nH]1` + COC1C(OC(N)=O)C(O)C(Oc2ccc3c(O)c(NC(=O)c4ccc(O)c(CC=C(C)C)c4)c(=O)oc3c2C)OC1(C)C, the viability, T/C was 101%.

The assay is the same for the next values; noted with them: second compound 0.316 µM; first compound 0.01 µM; hits give low values.
For the compound `COc1cccc(OCCCN)c1-c1cc(Nc2cnc(C#N)cn2)n[nH]1` + COC1C(OC(N)=O)C(O)C(Oc2ccc3c(O)c(NC(=O)c4ccc(O)c(CC=C(C)C)c4)c(=O)oc3c2C)OC1(C)C, the viability, T/C is 93%.

Staying with this assay, now noted: second compound 0.316 µM; first compound 0.0316 µM; hits give low values.
Turning to `CCCS(=O)(=O)Nc1ccc(F)c(C(=O)c2c[nH]c3ncc(-c4ccc(Cl)cc4)cc23)c1F` + COC1C(OC(N)=O)C(O)C(Oc2ccc3c(O)c(NC(=O)c4ccc(O)c(CC=C(C)C)c4)c(=O)oc3c2C)OC1(C)C, the viability, T/C is 106%.

For `CNCc1ccc(-c2[nH]c3cc(F)cc4c3c2CCNC4=O)cc1` + COC1C(OC(N)=O)C(O)C(Oc2ccc3c(O)c(NC(=O)c4ccc(O)c(CC=C(C)C)c4)c(=O)oc3c2C)OC1(C)C, the viability, T/C was 101%.

As for `COc1cccc(OCCCN)c1-c1cc(Nc2cnc(C#N)cn2)n[nH]1` + COC1C(OC(N)=O)C(O)C(Oc2ccc3c(O)c(NC(=O)c4ccc(O)c(CC=C(C)C)c4)c(=O)oc3c2C)OC1(C)C, the viability, T/C is 85%.

Consider `O=C(c1cc(Cc2n[nH]c(=O)c3ccccc23)ccc1F)N1CCN(C(=O)C2CC2)CC1` + COC1C(OC(N)=O)C(O)C(Oc2ccc3c(O)c(NC(=O)c4ccc(O)c(CC=C(C)C)c4)c(=O)oc3c2C)OC1(C)C, for which the viability, T/C is 110%.

The same assay, now with this note: second compound 0.316 µM; first compound 0.1 µM; hits give low values.
With `CCCS(=O)(=O)Nc1ccc(F)c(C(=O)c2c[nH]c3ncc(-c4ccc(Cl)cc4)cc23)c1F` + COC1C(OC(N)=O)C(O)C(Oc2ccc3c(O)c(NC(=O)c4ccc(O)c(CC=C(C)C)c4)c(=O)oc3c2C)OC1(C)C, the viability, T/C was 98.1%.

In the case of `CNCc1ccc(-c2[nH]c3cc(F)cc4c3c2CCNC4=O)cc1` + COC1C(OC(N)=O)C(O)C(Oc2ccc3c(O)c(NC(=O)c4ccc(O)c(CC=C(C)C)c4)c(=O)oc3c2C)OC1(C)C, the viability, T/C is 99.8%.

Consider `COc1cccc(OCCCN)c1-c1cc(Nc2cnc(C#N)cn2)n[nH]1` + COC1C(OC(N)=O)C(O)C(Oc2ccc3c(O)c(NC(=O)c4ccc(O)c(CC=C(C)C)c4)c(=O)oc3c2C)OC1(C)C, for which the viability, T/C is 73.1%.

As to `O=C(c1cc(Cc2n[nH]c(=O)c3ccccc23)ccc1F)N1CCN(C(=O)C2CC2)CC1` + COC1C(OC(N)=O)C(O)C(Oc2ccc3c(O)c(NC(=O)c4ccc(O)c(CC=C(C)C)c4)c(=O)oc3c2C)OC1(C)C, the viability, T/C is 96.9%.

The assay is the same for the next values; noted with them: second compound 0.316 µM; first compound 0.316 µM; hits give low values.
With `CCCS(=O)(=O)Nc1ccc(F)c(C(=O)c2c[nH]c3ncc(-c4ccc(Cl)cc4)cc23)c1F` + COC1C(OC(N)=O)C(O)C(Oc2ccc3c(O)c(NC(=O)c4ccc(O)c(CC=C(C)C)c4)c(=O)oc3c2C)OC1(C)C, the viability, T/C is 97%.

In the case of `CNCc1ccc(-c2[nH]c3cc(F)cc4c3c2CCNC4=O)cc1` + COC1C(OC(N)=O)C(O)C(Oc2ccc3c(O)c(NC(=O)c4ccc(O)c(CC=C(C)C)c4)c(=O)oc3c2C)OC1(C)C, the viability, T/C is 94.5%.
